*1 amine or outer side, *2 acyl side, *3 side chain or, on linkers, in order; H or OH if unused. Where a SMILES comes first, the peptide text is derived from it. [ ]: non-standard residue; d: D form. The star is where a group is joined. ξ: configuration not given here. X2 = Cn1cncc1C(O)C(N[*:1])C(=O)[*:2]; X3 = COC(CN[*:1])C(O)C(O)C(=O)[*:2]; ξVal(3-OH) = CC(C)(O)C(N)C(=O)O; NMeF = CN[CH](Cc1ccccc1)C(=O)O; X4 = O=C(C(O)N[*:1])[*:2]; X1 = CC(O)C(O)C(=O)*
Legend:
E. coli strain ATCC35218 = format: cell-based, Escherichia coli
Protocol: The present in vitro test identifies molecules having antimicrobial activity on the microorganisms by quantification of the culture optical density. Optical density compared to a vial with the same medium non inoculated by bacteria is an indicator of the bacterial growth. Minimal inhibitory concentrations were evaluated following the CLSI and EUCAST guidelines. Bacterial inoculum were prepared by overnight culture in cation-adjusted Mueller-Hinton II (MHII) medium from colonies isolated from colonies on agar plates, then diluted to evaluate the colony forming units (cfu) using the McFarland turbidity standard. A 96 well plate was inoculated with 100 μl of 5.105 cfu/ml in MHII, and test compounds prepared by serial dilution at 100× concentration in DMSO. After a 20-22 h incubation, optical density was evaluated on a microplate reader and the MIC endpoint was determined as the lowest concentration of antibiotic at which there is no visible growth in duplicates, meaning that optical density differs no more from negative controls than 10% of the difference in optical density between negative controls (medium, no bacteria) and positive control (bacteria in medium, no antibiotics).

[1] = system: Escherichia coli ATCC 35218; assay: Antibacterial activity against Escherichia coli: inhibitory activity (IC80), broth microdilution, absorbance at 590 nm; format: cell-based; conditions: Mueller Hinton broth, 37° C., 20 hours, growth inhibited by 80%
Protocol: A stock solution of 1000 μg/ml of the test compound was prepared in methanol. The test strain (Escherichia coli ATCC 35218) was stored at −80° C. The inoculum was prepared from a fresh liquid preculture. The preculture was prepared from a bead of the material stored at −80° C. and 30 ml of nutrient medium (Mueller Hinton broth, Difco) and incubated at 37° C. and 180 rpm for 18 hours. The inoculum was adjusted to an optical density (OD) of 0.2 at a wavelength of 600 nm. For this, the inoculum was adjusted to a value of 10^8 CFU/ml (CFU: colony forming units). After the adjustment of the inoculum, the suspension was diluted with nutrient solution (Mueller Hinton broth, Difco) in a ratio of 1:10000. The microtiter plate was inoculated within 15 min of preparation of the inoculum. The exact colony count was determined by means of surface culture. Using the stock solution of the test compound and the nutrient medium (Mueller Hinton broth, Difco), a dilution series was prepared beforehand on the microtiter plate. […] The microtiter plates were read with the aid of a photometer at a wavelength of 590 nm by measurement of the absorption. IC80 values were subsequently calculated from the values of the dilution series according to a standard process as the concentration of the test compound which is necessary in order to inhibit the growth of the test organism Escherichia coli by 80%.

Row | Structure (SMILES) | Absorbance MIC (E. coli strain ATCC35218) [µg/mL] | IC80 for inhibition of Escherichia coli ATCC 35218 [1] [µg/mL]
1 | COC(CNC(=O)C(NC(=O)C(O)C(C)O)C(O)c1cncn1C)C(O)C(O)C(=O)N(C)C(Cc1ccccc1)C(=O)NCC(=O)NC(C(=O)NC(CO)C(=O)NC(C(=O)NC(CC(C)C)C(=O)NC(CO)C(=O)O)C(C)(C)O)C(C)(C)O (stereo not drawn) [formula Ia] (X1-[X2][X3][NMeF]G[ξVal(3-OH)]S[ξVal(3-OH)]LS-OH; configuration not given here) | 1 to 4 | –
2 | COC(CNC(=O)C(NC(=O)C(O)C(C)O)C(O)c1cncn1C)C(O)C(O)C(=O)N(C)C(Cc1ccccc1)C(=O)NC(O)C(=O)NC(C(=O)NC(CO)C(=O)NC(C(=O)NC(CC(C)C)C(=O)NC(CO)C(=O)O)C(C)(C)O)C(C)(C)O (stereo not drawn) [formula Ib] (X1-[X2][X3][NMeF][X4][ξVal(3-OH)]S[ξVal(3-OH)]LS-OH; configuration not given here) | 8 | 0.71

— patent publication US20200216496A1, “Antibacterial Compounds Produced by the Microorganism Strain Corallococcus Coralloides ST201330 (DSM 24989)” (Sanofi, priority 2017, published 2020)
